The assay relates to P3H1 within the PCP complex. Nature of the assay: 2-OG dependent oxygenase activity. The settings on record: Succinate-Glo assay, Fig. 1g, Fig. 3f, Supplementary Fig. 1f. The class given is biochemical, human.

The results in this text go back to article PMC11381544 (Nature Communications, 2024).

In the case of “PCP-PPIBR95A: PCP complex with PPIB enzymatic mutation at the PI-site, R95A”, the “2OG-Fe (II) oxygenase / P3H1 activity, in words” value runs as follows: (listed as PPIB^R95A) “elevated P3H1 activities”; (listed as R95A) “enhancing P3H1 activities”.

As for “PCP ternary complex: low molecular weight elution fractions corresponding to the PCP ternary complex”, the “2OG-Fe (II) oxygenase / P3H1 activity, in words” value is reported as “inhibited upon depletion of ferrous ions”.

Turning to “peak HW: high molecular weight elution fractions corresponding to the PCP dual-ternary complex”, the “2OG-Fe (II) oxygenase / P3H1 activity, in words” value is listed as “slightly lower P3H1 activity”.

Regarding cyclosporin A [CsA, reference compound], the “2OG-Fe (II) oxygenase / P3H1 activity, in words” value is “hydroxylation enhancement was absent”.
